Reference: ChEMBL document CHEMBL1201862, “PubChem BioAssay data set” (2004)
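Tested at 5 concentrations; 48 h exposure; 96-well plates; endpoints linearly interpolated, else capped at highest concentration. Abbreviation: GI50, concentration required for 50% inhibition of growth.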 The source made the active and inactive calls. No stated cut-off is given here; in the data, active = GI50 up to about 1.1 µM and inactive = higher.

Tests used:
Assay in all cases: DTP human tumour cell line panel, 48 h
[1] = test system: PC-3
[2] = test system: COLO 205
[3] = test system: BT-549
[4] = test system: HCT-116
[5] = test system: HOP-62
[6] = test system: MDA-N
[7] = test system: Malme-3M
[8] = test system: NCI-H226
[9] = test system: CCRF-CEM
[10] = test system: OVCAR-4
[11] = test system: SK-MEL-2
[12] = test system: OVCAR-8
[13] = test system: SF-268
[14] = test system: HCC 2998
[15] = test system: K562
[16] = test system: MCF7
[17] = test system: LOX IMVI
[18] = test system: SNB-19
[19] = test system: EKVX
[20] = test system: NCI-H522

Clc1cccc(/C=N/C23CC4CC(CC(C4)C2)C3)c1Cl
GI50 [1]: > 10000 nM (inactive) | GI50 [2]: > 10000 nM (inactive) | GI50 [3]: > 10000 nM (inactive) | GI50 [4]: 6350 nM (inactive) | GI50 [5]: > 10000 nM (inactive) | GI50 [6]: > 10000 nM (inactive) | GI50 [7]: > 10000 nM (inactive) | GI50 [8]: > 10000 nM (inactive) | GI50 [9]: > 10000 nM (inactive) | GI50 [10]: > 10000 nM (inactive) | GI50 [11]: > 10000 nM (inactive) | GI50 [12]: > 10000 nM (inactive) | GI50 [13]: > 10000 nM (inactive) | GI50 [14]: > 10000 nM (inactive) | GI50 [15]: > 10000 nM (inactive) | GI50 [16]: > 10000 nM (inactive) | GI50 [17]: > 10000 nM (inactive) | GI50 [18]: > 10000 nM (inactive) | GI50 [19]: > 10000 nM (inactive) | GI50 [20]: > 10000 nM (inactive)

C=CC(C)(C)n1cc(C2=C(O)C(=O)C(c3cn(C(C)(C)C=C)c4ccccc34)=C(OC(C)=O)C2=O)c2ccccc21
GI50 [1]: 750 nM (active) | GI50 [2]: 1670 nM (inactive) | GI50 [3]: 494 nM (active) | GI50 [4]: 429 nM (active) | GI50 [5]: 628 nM (active) | GI50 [6]: 662 nM (active) | GI50 [7]: 1460 nM (inactive) | GI50 [8]: 1360 nM (inactive) | GI50 [9]: 435 nM (active) | GI50 [10]: 1320 nM (inactive) | GI50 [11]: 1020 nM (active) | GI50 [12]: 632 nM (active) | GI50 [13]: 655 nM (active) | GI50 [14]: 908 nM (active) | GI50 [15]: 424 nM (active) | GI50 [16]: 71.5 nM (active) | GI50 [17]: 508 nM (active) | GI50 [18]: 1040 nM (active) | GI50 [19]: 1110 nM (active) | GI50 [20]: 1550 nM (inactive)

CSCCCNC(=O)c1csc(-c2csc(CCNC(=O)CNC(=O)CNC(=O)CNC(=O)OC(C)(C)C)n2)n1
GI50 [1]: > 100000 nM (inactive) | GI50 [2]: > 100000 nM (inactive) | GI50 [3]: > 100000 nM (inactive) | GI50 [4]: > 100000 nM (inactive) | GI50 [5]: > 100000 nM (inactive) | GI50 [6]: > 100000 nM (inactive) | GI50 [7]: > 100000 nM (inactive) | GI50 [8]: > 100000 nM (inactive) | GI50 [9]: > 100000 nM (inactive) | GI50 [10]: > 100000 nM (inactive) | GI50 [11]: > 100000 nM (inactive) | GI50 [12]: > 100000 nM (inactive) | GI50 [13]: > 100000 nM (inactive) | GI50 [14]: > 100000 nM (inactive) | GI50 [15]: > 100000 nM (inactive) | GI50 [16]: > 100000 nM (inactive) | GI50 [17]: > 100000 nM (inactive) | GI50 [18]: > 100000 nM (inactive) | GI50 [19]: > 100000 nM (inactive) | GI50 [20]: > 100000 nM (inactive)

Brc1ccc2c(-c3nc(-c4c[nH]c5ccc(Br)cc45)cs3)c[nH]c2c1
GI50 [1]: 6000 nM (inactive) | GI50 [2]: 2540 nM (inactive) | GI50 [3]: 13300 nM (inactive) | GI50 [4]: 3670 nM (inactive) | GI50 [5]: 11700 nM (inactive) | GI50 [6]: 4450 nM (inactive) | GI50 [7]: 4240 nM (inactive) | GI50 [8]: 1940 nM (inactive) | GI50 [9]: 4680 nM (inactive) | GI50 [10]: 9330 nM (inactive) | GI50 [11]: 6250 nM (inactive) | GI50 [12]: 7140 nM (inactive) | GI50 [13]: 4820 nM (inactive) | GI50 [14]: 2480 nM (inactive) | GI50 [15]: 3440 nM (inactive) | GI50 [16]: 887 nM (active) | GI50 [17]: 2320 nM (inactive) | GI50 [18]: 4250 nM (inactive) | GI50 [19]: 1240 nM (inactive) | GI50 [20]: 1950 nM (inactive)

CN(C)CCn1c(=O)c2ccc(NCCNCCO)c3c(=O)c4ccccc4n(c1=O)c23
GI50 [1]: 182 nM (active) | GI50 [2]: 70.3 nM (active) | GI50 [3]: 1210 nM (inactive) | GI50 [4]: 49.2 nM (active) | GI50 [5]: 28.7 nM (active) | GI50 [6]: 328 nM (active) | GI50 [7]: 336 nM (active) | GI50 [8]: 34.8 nM (active) | GI50 [9]: < 10 nM (active) | GI50 [10]: 514 nM (active) | GI50 [11]: 423 nM (active) | GI50 [12]: 63.2 nM (active) | GI50 [13]: 47.1 nM (active) | GI50 [14]: < 32.9 nM (active) | GI50 [15]: 24.5 nM (active) | GI50 [16]: < 10 nM (active) | GI50 [17]: 34.1 nM (active) | GI50 [18]: 182 nM (active) | GI50 [19]: 231 nM (active) | GI50 [20]: 58.1 nM (active)

O=c1cc(/C=C/c2ccc(O)c(O)c2)oc(/C=C/c2ccc(O)c(O)c2)c1
GI50 [1]: 5730 nM (inactive) | GI50 [2]: 8200 nM (inactive) | GI50 [3]: 4800 nM (inactive) | GI50 [4]: 4530 nM (inactive) | GI50 [5]: 7530 nM (inactive) | GI50 [6]: 2240 nM (inactive) | GI50 [7]: 5060 nM (inactive) | GI50 [8]: 5160 nM (inactive) | GI50 [9]: 1240 nM (inactive) | GI50 [10]: 3780 nM (inactive) | GI50 [11]: 2650 nM (inactive) | GI50 [12]: 4400 nM (inactive) | GI50 [13]: 2170 nM (inactive) | GI50 [14]: 2490 nM (inactive) | GI50 [15]: 2110 nM (inactive) | GI50 [16]: 3290 nM (inactive) | GI50 [17]: 3610 nM (inactive) | GI50 [18]: 3820 nM (inactive) | GI50 [19]: 6530 nM (inactive) | GI50 [20]: 1240 nM (inactive)

CN[C@@H]1C[C@H]2O[C@@](C)([C@@H]1OC)n1c3ccccc3c3c4c(c5c6ccccc6n2c5c31)C(=O)N[C@@H]4O
GI50 [1]: 9.04 nM (active) | GI50 [2]: 56.9 nM (active) | GI50 [3]: 108 nM (active) | GI50 [4]: 144 nM (active) | GI50 [5]: < 13.4 nM (active) | GI50 [6]: 57.4 nM (active) | GI50 [7]: 17.5 nM (active) | GI50 [8]: 19.4 nM (active) | GI50 [9]: 16.5 nM (active) | GI50 [10]: 52.6 nM (active) | GI50 [11]: 14.5 nM (active) | GI50 [12]: 66.8 nM (active) | GI50 [13]: 40.8 nM (active) | GI50 [14]: 149 nM (active) | GI50 [15]: 310 nM (active) | GI50 [16]: 21.2 nM (active) | GI50 [17]: 33.1 nM (active) | GI50 [18]: 120 nM (active) | GI50 [19]: 18.3 nM (active) | GI50 [20]: 48.4 nM (active)
